{"source": "patent US20080051379A1", "about": "“Compositions and Methods for the Treatment of Peripheral B-Cell Neoplasms” (Trustees of Boston University, priority 2004, published 2008)", "format_in_all_cases": "cell-based, human", "key": {"[1]": {"tested_on": "PDE4A, PDE4B or PDE4D expression in B-CLL cells", "assay": "Western analysis of PDE4 isoforms, B-CLL cells", "settings": "10 μM rolipram, 18 hours", "experimental": "(§1) B-CLL and CCRF-CEM cells were incubated for 18 hours with media alone, 10 μM rolipram, 10 μM forskolin (Fsk), 1 μM hydrocortisone (HC), or the same concentration of rolipram combined with 1 μM hydrocortisone (Roli+HC) or 10 μM forskolin (Roli+Fsk). Lysates of the cells were then assessed for expression of PDE4A, PDE4B or PDE4D by Western analysis. Equal loading of samples was verified by immunoblotting for tubulin.\n30 million B-CLL cells or 10 million CCRF-CEM cells were incubated for 18 hours in media alone or with the addition of drugs as indicated in the text. Western analysis was then carried out as previously described^30. The PDE4A (66C12H), PDE4B (96G7A) and PDE4D (61D10E) antibodies were kind gifts from Dr. Sharon Wolda (ICOS, Bothell, Wash.) and have been previously described^30 31."}, "[2]": {"tested_on": "B-CLL cells", "assay": "Hoechst 33342 apoptosis assay, B-CLL cells", "settings": "for apoptosis by Hoechst 33342 analysis: 48 hrs culture, Roli 10 μM, HC 1 μM", "experimental": "FIGS. 1A-D show the effects of the cyclic nucleotide phosphodiesterase inhibitors rolipram, RO20-1724 and cilostamide on hydrocortisone and dexamethasone-induced apoptosis in B-CLL. In FIG. 1A, leukemic cells from 11 B-CLL patients were assessed for apoptosis by […] analysis after 48 hrs culture in media alone (No treatment), 10 μM rolipram (Roli), 1 μM hydrocortisone (HC) or a combination of the two drugs (Roli+HC). In FIGS. 1B and 1C, leukemic cells from five patients with B-CLL were cultured in media alone or with a dose titration of hydrocortisone (1B: solid line) or dexamethasone (1C: solid line), followed by assessment for apoptosis by Hoechst 33342 FACS analysis at 48 hours. Using the same experimental conditions, the effect of addition of 10 μM rolipram (thick dashed line) to the glucocorticoids was also assessed. In FIG. 1D, the apoptotic effects of the PDE4 inhibitor RO20-1724 (RO20) (10 μM) or the PDE3 inhibitor cilostamide (Cilost) (10 μM) were assessed on B-CLL cells when combined with 1 μM hydrocortisone. Data represent the mean±SEM of triplicate samples.\nBlood samples were obtained by IRB-approved consent from flow cytometry-confirmed B-CLL patients that were either untreated or for whom at least one month had elapsed since chemotherapy. Patients with active infections or other serious medical conditions were not included in this study.\nCCRF-CEM cells were obtained from ATCC^27. Leukemic or normal mononuclear cells were obtained by centrifugation over Histopaque 1077 (Sigma Chemical Company, St. Louis, Mo.). For purification of T cells, whole mononuclear cells from normal subjects were incubated with magnetic beads coated with appropriate antibodies, then positively purified using a magnet (Miltenyi). Cells were cultured in RPMI 1640 media (Biowhittaker, Walkersville, Md.) supplemented with 10% fetal calf serum, 50 μMol/L 2-mercaptoethanol, 2 mMol/L L-glutamine, 10 mM Hepes pH 7.4, […] (Sigma Chemical Company, St. Louis, Mo.). For isolation of glucocorticoid resistant clones, parental CCRF-CEM cells were treated with 1 μM dexamethasone for 10 days, and surviving cells diluted to ≦one cell/well in a 96-well flat-bottom tissue culture plate, grown for three weeks in media supplemented with 20% fetal calf serum and 1% insulin-transferrin-selenium (GIBCO), and then transferred to regular growth medium. […] For isolation of glucocorticoid-sensitive clones, the same procedure was used, except that treatment with dexamethasone was omitted. A glucocorticoid-sensitive subclone (CEM-S2) was inhibited in its survival by dexamethasone with an IC50=0.007 μM.\nHoechst 33342 and DiOC6(3) apoptosis assays were performed as previously described^22,28. For CCRF-CEM cell survival assays, cells were plated at a density of 3×10^4/well in 96-well flat-bottom plates in the presence of test reagents or vehicle in 0.1 mL media. Following incubation for 72 hrs, 20 μl of a 20:1 MTS (2 mg/mL)/PMS (0.92 mg/ml) solution was added to each well, and the plates incubated for 2 hrs at 37°. The absorbance (O.D.) of the formazan product was determined at 492 nm using a plate reader (Titertek Multiscan Plus, Labsystems). Percent cell viability was calculated as follows: (O.D. control sample−O.D. blank)/(O.D. test sample−O.D. blank)×100. All assays were performed in triplicate."}, "[3]": {"tested_on": "peripheral blood T cells", "assay": "Hoechst 33342 apoptosis assay, peripheral blood T cells", "settings": "10 μM rolipram", "experimental": "Magnetic bead purified peripheral blood T cells or leukemic cells from patients with B-CLL or Sezary syndrome were cultured in media alone or with a dose titration of hydrocortisone (solid line), followed by assessment for apoptosis by Hoechst 33342 FACS analysis at 48 hours. Using the same experimental conditions, the effect of addition of 10 μM rolipram (thick dashed line) or 10 μM rolipram and 40 μM forskolin (dotted line) was also assessed. The SEM of triplicate samples is shown; where not visible, the SEM was less than 1.0%.\nCCRF-CEM cells were obtained from ATCC^27. Leukemic or normal mononuclear cells were obtained by centrifugation over Histopaque 1077 (Sigma Chemical Company, St. Louis, Mo.). For purification of T cells, whole mononuclear cells from normal subjects were incubated with magnetic beads coated with appropriate antibodies, then positively purified using a magnet (Miltenyi). […]\nHoechst 33342 and DiOC6(3) apoptosis assays were performed as previously described^22,28. […] The absorbance (O.D.) of the formazan product was determined at 492 nm using a plate reader (Titertek Multiscan Plus, Labsystems). Percent cell viability was calculated as follows: (O.D. control sample−O.D. blank)/(O.D. test sample−O.D. blank)×100. […]"}, "[4]": {"tested_on": "PDE4A, PDE4B or PDE4D expression in CCRF-CEM cells", "assay": "Western analysis of PDE4 isoforms, CCRF-CEM cells", "settings": "rolipram", "experimental": "as §1\n30 million B-CLL cells or 10 million CCRF-CEM cells were incubated for 18 hours in media alone or with the addition of drugs as indicated in the text. Western analysis was then carried out as previously described^30."}}, "data": [{"smiles": "COc1ccc(C2CNC(=O)C2)cc1OC1CCCC1", "note": "(stereo not drawn) [rolipram, 4-(3-cyclopentyloxy-4-methoxyphenyl)-2-pyrrolidone]", "values": [{"measurement": "expression of 63 and 68 kDa form of PDE4D", "setting": "[1]", "value": "either no or very low level rolipram-induced expression"}, {"measurement": "expression of 63 and 68 kDa forms of PDE4B", "setting": "[1]", "value": "rolipram-inducible expression"}, {"measurement": "B-CLL apoptosis, rolipram added to dexamethasone", "setting": "[2]; 10 μM rolipram + dexamethasone dose titration, 48 hours", "value": "augmented B-CLL apoptosis beyond the levels observed with either agent alone"}, {"measurement": "apoptosis by Hoechst 33342 analysis", "setting": "[2]; B-CLL patient #1, No Rx 10", "value": 17, "unit": "%"}, {"measurement": "apoptosis by Hoechst 33342 analysis", "setting": "[2]; B-CLL patient #2, No Rx 11", "value": 13, "unit": "%"}, {"measurement": "apoptosis by Hoechst 33342 analysis", "setting": "[2]; B-CLL patient #3, No Rx 13", "value": 24, "unit": "%"}, {"measurement": "apoptosis by Hoechst 33342 analysis", "setting": "[2]; B-CLL patient #4, No Rx 23", "value": 34, "unit": "%"}, {"measurement": "apoptosis by Hoechst 33342 analysis", "setting": "[2]; B-CLL patient #5, No Rx 25", "value": 37, "unit": "%"}, {"measurement": "apoptosis by Hoechst 33342 analysis", "setting": "[2]; B-CLL patient #6, No Rx 27", "value": 45, "unit": "%"}, {"measurement": "apoptosis by Hoechst 33342 analysis", "setting": "[2]; B-CLL patient #7, No Rx 31", "value": 67, "unit": "%"}, {"measurement": "apoptosis by Hoechst 33342 analysis", "setting": "[2]; B-CLL patient #8, No Rx 33", "value": 62, "unit": "%"}, {"measurement": "apoptosis by Hoechst 33342 analysis", "setting": "[2]; B-CLL patient #9, No Rx 35", "value": 81, "unit": "%"}, {"measurement": "apoptosis by Hoechst 33342 analysis", "setting": "[2]; B-CLL patient #10, No Rx 44", "value": 58, "unit": "%"}, {"measurement": "apoptosis by Hoechst 33342 analysis", "setting": "[2]; B-CLL patient #11, No Rx 61", "value": 75, "unit": "%"}, {"measurement": "augmentation of induction of apoptosis relative to the increment induced with 100 μM hydrocortisone alone", "setting": "[2]; addition of 10 μM rolipram to 100 μM hydrocortisone, five patients", "value": "40±18", "unit": "%"}, {"measurement": "augmentation of the apoptotic effect of 1 μM hydrocortisone on T cells", "setting": "[3]", "value": "failed to augment"}, {"measurement": "induction of apoptosis in peripheral blood T cells", "setting": "[3]", "value": "failed to induce apoptosis"}, {"measurement": "induction of PDE4 isoforms", "setting": "[4]", "value": "nor induced any PDE4 isoform"}]}]}
